Test results from ChEMBL document CHEMBL5291721, “A preclinical secondary pharmacology resource illuminates target-adverse drug reaction associations of marketed drugs” (Nat Commun, 2023).

How the values were obtained:
Acetylcholinesterase = Acetylcholinesterase (Homo sapiens, UniProt P22303); assay type: functional
[1] = molecular target: T1, Alpha-1A adrenergic receptor (Homo sapiens, UniProt P35348); assay type: functional, cell-based
T1 sequence (P35348 whole entry): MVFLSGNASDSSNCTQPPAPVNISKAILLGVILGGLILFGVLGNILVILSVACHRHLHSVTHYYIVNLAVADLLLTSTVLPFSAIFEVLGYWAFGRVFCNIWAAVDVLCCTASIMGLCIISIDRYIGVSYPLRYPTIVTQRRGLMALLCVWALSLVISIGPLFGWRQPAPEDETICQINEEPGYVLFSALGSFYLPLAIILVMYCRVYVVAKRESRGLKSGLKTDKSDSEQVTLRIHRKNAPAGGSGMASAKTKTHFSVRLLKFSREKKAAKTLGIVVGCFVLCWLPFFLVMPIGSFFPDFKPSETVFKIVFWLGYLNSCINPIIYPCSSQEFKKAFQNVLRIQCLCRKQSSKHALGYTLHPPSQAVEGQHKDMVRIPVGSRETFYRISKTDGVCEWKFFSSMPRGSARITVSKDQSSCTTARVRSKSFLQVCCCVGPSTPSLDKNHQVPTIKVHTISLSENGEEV

[2] = molecular target: T2, 5-hydroxytryptamine receptor 1A (Homo sapiens, UniProt P08908)
T2 sequence (P08908 whole entry): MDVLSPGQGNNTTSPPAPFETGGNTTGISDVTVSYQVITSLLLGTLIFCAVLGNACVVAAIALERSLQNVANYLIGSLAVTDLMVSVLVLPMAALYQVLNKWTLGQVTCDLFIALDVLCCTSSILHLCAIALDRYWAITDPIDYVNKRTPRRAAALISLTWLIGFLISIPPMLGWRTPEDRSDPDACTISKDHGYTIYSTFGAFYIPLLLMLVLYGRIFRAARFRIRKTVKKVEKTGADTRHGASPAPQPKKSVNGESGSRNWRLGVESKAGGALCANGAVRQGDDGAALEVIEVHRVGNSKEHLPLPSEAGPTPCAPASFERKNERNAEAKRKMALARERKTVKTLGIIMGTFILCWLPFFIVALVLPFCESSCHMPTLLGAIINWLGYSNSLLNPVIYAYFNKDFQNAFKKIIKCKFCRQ

[3] = molecular target: T3, Muscarinic acetylcholine receptor M2 (Homo sapiens, UniProt P08172)
T3 sequence (P08172 whole entry): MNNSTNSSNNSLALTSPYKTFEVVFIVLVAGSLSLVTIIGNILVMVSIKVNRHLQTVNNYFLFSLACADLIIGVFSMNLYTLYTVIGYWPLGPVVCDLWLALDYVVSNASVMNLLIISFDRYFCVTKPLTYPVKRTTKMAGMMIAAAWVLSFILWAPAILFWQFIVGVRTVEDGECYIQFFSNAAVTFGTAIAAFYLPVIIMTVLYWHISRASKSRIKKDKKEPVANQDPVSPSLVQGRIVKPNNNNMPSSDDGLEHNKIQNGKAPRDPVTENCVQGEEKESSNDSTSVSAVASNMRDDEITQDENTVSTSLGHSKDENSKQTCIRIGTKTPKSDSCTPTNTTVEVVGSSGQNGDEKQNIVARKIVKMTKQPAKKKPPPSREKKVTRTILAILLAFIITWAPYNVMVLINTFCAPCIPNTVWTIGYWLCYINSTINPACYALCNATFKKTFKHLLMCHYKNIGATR

Histamine H3 receptor = Histamine H3 receptor (Homo sapiens, UniProt Q9Y5N1)
D(1A) dopamine receptor = D(1A) dopamine receptor (Homo sapiens, UniProt P21728)
Mu-type opioid receptor = Mu-type opioid receptor (Homo sapiens, UniProt P35372)
[4] = molecular target: T4, Alpha-2A adrenergic receptor (Homo sapiens, UniProt P08913)
T4 sequence (P08913 whole entry): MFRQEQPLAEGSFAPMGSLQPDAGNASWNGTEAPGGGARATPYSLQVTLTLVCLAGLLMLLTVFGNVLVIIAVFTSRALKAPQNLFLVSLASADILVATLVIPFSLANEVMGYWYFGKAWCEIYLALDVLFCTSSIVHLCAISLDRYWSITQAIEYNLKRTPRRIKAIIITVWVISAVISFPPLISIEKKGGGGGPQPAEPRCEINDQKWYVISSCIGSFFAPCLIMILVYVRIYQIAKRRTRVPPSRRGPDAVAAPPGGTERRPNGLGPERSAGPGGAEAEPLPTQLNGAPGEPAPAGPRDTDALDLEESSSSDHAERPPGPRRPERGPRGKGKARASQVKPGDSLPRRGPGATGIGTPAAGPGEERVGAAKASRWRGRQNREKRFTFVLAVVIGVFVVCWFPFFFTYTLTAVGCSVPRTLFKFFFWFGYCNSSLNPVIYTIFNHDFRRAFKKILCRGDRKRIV

[5] = molecular target: Gamma-aminobutyric acid receptor subunit alpha-1 (Rattus norvegicus, UniProt P62813)
[6] = molecular target: Sodium-dependent noradrenaline transporter (Homo sapiens, UniProt P23975)
[7] = molecular target: 5-hydroxytryptamine receptor 2B (Homo sapiens, UniProt P41595); assay type: functional, cell-based
[8] = molecular target: T5, Amine oxidase [flavin-containing] A (Homo sapiens, UniProt P21397); assay type: functional
T5 sequence (P21397 whole entry): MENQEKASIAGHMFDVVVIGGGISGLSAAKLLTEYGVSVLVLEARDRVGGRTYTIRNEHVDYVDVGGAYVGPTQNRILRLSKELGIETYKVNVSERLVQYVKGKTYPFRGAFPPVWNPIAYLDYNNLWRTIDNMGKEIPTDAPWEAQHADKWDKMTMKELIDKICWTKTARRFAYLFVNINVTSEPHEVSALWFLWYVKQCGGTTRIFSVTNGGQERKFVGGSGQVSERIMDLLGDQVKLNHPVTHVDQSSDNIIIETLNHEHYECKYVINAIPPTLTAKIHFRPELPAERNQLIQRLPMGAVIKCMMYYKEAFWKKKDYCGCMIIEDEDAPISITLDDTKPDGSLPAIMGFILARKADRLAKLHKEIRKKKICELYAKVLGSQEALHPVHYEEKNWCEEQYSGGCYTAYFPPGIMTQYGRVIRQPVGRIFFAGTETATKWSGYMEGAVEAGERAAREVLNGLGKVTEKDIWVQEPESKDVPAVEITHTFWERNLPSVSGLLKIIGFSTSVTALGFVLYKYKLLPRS

D(3) dopamine receptor = D(3) dopamine receptor (Homo sapiens, UniProt P35462)
[9] = molecular target: Sodium-dependent dopamine transporter (Homo sapiens, UniProt Q01959)
D(4) dopamine receptor = molecular target: T6, D(4) dopamine receptor (Homo sapiens, UniProt P21917)
T6 sequence (P21917 whole entry): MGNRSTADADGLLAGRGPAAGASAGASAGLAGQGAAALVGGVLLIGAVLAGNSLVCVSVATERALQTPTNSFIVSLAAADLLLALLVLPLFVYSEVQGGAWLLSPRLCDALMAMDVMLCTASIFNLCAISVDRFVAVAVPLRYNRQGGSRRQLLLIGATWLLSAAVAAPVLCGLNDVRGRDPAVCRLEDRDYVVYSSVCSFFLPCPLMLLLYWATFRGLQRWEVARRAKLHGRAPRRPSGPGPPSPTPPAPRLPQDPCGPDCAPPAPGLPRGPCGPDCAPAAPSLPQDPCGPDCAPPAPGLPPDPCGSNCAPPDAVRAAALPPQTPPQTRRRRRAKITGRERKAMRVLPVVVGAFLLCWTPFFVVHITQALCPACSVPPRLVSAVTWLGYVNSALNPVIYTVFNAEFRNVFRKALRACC

[10] = molecular target: Sodium-dependent serotonin transporter (Homo sapiens, UniProt P31645)
Further: assay procedure not described here.

Chain of Acetylcholinesterase (P22303 whole entry): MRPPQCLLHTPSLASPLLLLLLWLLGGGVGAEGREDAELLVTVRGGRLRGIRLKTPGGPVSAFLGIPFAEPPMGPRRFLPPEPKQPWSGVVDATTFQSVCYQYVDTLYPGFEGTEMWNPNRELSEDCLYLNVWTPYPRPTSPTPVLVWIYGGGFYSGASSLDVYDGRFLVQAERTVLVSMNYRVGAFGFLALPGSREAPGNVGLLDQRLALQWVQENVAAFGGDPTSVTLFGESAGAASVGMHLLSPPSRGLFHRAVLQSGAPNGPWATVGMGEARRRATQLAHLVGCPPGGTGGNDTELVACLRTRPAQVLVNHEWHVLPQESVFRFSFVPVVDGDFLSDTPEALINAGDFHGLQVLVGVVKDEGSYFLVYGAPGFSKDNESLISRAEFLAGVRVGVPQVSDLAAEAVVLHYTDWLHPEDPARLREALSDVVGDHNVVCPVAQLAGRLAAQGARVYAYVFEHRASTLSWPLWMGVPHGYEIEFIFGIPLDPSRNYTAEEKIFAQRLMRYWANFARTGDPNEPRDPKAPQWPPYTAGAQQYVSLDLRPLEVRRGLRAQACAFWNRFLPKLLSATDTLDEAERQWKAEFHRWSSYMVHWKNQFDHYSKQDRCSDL
Chain of Mu-type opioid receptor (P35372 whole entry): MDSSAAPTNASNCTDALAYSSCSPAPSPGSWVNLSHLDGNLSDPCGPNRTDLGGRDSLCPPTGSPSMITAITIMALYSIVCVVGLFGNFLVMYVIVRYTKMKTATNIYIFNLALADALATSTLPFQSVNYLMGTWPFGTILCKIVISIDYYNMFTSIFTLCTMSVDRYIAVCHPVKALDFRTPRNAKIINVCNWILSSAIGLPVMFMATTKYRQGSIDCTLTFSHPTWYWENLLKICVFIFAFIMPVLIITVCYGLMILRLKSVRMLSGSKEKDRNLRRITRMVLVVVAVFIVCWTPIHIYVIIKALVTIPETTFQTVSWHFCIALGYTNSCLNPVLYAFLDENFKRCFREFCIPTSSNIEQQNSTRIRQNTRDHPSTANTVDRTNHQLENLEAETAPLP
Chain of 5-hydroxytryptamine receptor 2B (P41595 whole entry): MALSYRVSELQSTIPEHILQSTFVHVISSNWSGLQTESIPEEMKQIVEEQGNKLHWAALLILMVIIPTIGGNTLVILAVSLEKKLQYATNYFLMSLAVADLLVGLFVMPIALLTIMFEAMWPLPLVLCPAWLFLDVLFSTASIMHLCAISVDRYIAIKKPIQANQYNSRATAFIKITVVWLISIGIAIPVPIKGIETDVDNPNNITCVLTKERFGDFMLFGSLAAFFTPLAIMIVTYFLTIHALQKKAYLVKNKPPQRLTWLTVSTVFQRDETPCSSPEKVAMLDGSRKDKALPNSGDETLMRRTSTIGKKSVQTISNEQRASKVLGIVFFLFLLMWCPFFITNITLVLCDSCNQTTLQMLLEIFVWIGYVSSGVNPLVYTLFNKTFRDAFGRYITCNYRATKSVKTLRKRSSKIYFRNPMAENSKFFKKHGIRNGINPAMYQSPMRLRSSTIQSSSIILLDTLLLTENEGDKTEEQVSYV
Chain of Histamine H3 receptor (Q9Y5N1 whole entry): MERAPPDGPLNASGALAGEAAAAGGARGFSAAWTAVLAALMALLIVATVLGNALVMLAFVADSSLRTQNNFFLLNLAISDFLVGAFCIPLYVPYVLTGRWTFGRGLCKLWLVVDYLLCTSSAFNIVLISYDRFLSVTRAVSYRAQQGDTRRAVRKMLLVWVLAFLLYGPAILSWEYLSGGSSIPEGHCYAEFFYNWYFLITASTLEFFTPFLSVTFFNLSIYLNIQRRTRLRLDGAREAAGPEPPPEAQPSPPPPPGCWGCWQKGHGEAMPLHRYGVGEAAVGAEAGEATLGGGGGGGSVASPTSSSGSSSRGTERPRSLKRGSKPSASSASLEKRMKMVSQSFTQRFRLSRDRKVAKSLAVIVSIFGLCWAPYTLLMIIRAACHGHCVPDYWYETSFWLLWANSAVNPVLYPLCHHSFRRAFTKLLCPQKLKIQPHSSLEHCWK
Chain of Gamma-aminobutyric acid receptor subunit alpha-1 (P62813 whole entry): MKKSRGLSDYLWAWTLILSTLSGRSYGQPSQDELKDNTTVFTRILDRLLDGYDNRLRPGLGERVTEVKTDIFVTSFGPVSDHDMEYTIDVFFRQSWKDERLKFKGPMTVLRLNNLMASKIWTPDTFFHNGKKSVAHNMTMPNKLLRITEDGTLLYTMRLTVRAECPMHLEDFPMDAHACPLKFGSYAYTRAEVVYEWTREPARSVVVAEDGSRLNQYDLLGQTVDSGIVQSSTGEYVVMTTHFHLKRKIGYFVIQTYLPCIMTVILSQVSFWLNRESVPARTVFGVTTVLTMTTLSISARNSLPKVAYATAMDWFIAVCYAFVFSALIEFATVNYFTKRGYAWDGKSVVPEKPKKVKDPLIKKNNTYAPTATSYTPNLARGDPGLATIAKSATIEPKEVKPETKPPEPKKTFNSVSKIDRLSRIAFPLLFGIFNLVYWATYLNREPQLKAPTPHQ
Chain of Sodium-dependent noradrenaline transporter (P23975 whole entry): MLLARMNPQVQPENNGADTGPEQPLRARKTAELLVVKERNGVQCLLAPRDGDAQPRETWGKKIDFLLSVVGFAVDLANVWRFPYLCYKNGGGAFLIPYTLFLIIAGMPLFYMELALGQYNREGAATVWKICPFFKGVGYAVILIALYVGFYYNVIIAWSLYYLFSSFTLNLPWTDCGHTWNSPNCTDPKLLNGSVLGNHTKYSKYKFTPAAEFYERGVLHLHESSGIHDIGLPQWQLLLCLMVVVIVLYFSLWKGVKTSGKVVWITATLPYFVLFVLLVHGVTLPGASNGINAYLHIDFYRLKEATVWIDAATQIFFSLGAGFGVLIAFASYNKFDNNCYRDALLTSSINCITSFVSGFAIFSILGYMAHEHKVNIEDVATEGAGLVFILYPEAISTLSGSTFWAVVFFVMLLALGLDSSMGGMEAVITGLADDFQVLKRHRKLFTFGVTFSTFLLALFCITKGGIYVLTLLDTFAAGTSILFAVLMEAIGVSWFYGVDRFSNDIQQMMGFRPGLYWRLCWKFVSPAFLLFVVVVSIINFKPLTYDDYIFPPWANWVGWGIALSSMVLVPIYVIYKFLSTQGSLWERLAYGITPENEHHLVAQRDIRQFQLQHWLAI
Chain of D(3) dopamine receptor (P35462 whole entry): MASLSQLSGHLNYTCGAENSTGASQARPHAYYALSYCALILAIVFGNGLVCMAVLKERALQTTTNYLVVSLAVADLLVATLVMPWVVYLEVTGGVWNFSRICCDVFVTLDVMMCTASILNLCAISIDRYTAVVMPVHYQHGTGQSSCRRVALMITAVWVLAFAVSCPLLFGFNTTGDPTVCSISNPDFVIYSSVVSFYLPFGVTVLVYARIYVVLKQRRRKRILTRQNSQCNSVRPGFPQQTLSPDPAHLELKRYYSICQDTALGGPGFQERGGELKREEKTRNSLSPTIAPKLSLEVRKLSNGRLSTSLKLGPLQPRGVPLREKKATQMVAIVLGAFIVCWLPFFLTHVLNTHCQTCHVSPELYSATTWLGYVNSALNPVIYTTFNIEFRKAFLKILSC
Chain of Sodium-dependent dopamine transporter (Q01959 whole entry): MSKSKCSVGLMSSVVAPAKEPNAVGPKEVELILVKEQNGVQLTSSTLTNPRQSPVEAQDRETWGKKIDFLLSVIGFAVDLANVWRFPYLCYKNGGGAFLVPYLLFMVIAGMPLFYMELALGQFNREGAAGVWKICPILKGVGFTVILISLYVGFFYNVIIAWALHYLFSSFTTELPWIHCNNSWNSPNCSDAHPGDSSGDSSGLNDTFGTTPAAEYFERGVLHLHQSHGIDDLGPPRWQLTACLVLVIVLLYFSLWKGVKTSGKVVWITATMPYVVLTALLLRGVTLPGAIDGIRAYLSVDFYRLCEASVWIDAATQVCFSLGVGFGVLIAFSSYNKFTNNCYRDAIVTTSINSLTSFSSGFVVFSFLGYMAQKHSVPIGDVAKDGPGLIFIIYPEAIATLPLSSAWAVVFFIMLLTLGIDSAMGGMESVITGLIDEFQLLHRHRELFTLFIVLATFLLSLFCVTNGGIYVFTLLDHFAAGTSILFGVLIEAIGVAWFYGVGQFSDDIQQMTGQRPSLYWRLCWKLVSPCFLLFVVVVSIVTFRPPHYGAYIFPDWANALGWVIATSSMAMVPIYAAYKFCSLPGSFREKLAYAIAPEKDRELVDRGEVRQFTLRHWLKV
Chain of Sodium-dependent serotonin transporter (P31645 whole entry): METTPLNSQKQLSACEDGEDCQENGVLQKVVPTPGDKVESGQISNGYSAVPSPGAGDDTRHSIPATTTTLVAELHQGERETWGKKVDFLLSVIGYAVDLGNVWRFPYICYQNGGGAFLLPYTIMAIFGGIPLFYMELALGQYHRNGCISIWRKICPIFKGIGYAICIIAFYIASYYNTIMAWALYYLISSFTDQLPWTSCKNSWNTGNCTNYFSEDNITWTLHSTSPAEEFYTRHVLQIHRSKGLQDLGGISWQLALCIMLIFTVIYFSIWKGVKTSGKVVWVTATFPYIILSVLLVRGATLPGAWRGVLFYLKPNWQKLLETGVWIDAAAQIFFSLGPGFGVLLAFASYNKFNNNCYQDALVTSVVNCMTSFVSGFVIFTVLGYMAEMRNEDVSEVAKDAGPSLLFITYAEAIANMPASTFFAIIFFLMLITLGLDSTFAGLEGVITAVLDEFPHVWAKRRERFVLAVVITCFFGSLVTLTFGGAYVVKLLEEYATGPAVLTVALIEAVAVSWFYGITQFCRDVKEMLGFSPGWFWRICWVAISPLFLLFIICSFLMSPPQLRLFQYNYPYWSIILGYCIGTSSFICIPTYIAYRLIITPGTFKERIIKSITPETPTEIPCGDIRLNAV

Compound: CN1CCCN=C1/C=C/c1cccs1
- AC50 (Acetylcholinesterase): 10.9 µM

Compound: CC[C@@]1(O)C[C@H](O[C@H]2C[C@H](N(C)C)[C@H](O[C@H]3C[C@H](O)[C@H](O[C@H]4CCC(=O)[C@H](C)O4)[C@H](C)O3)[C@H](C)O2)c2c(cc3c(c2O)C(=O)c2c(O)cccc2C3=O)[C@H]1C(=O)OC [ACLARUBICIN]
- AC50 [1]: > 30 µM
- AC50 [2]: > 30 µM
- AC50 [3]: > 30 µM
- AC50 (Histamine H3 receptor): > 30 µM
- AC50 (D(1A) dopamine receptor): > 30 µM
- AC50 (Mu-type opioid receptor): > 30 µM
- AC50 [4]: > 30 µM
- AC50 [5]: > 30 µM
- AC50 [6]: > 30 µM
- AC50 [7]: > 30 µM
- AC50 [8]: > 30 µM
- AC50 (D(3) dopamine receptor): > 30 µM
- AC50 [9]: > 30 µM
- AC50 (Acetylcholinesterase): > 30 µM

Compound: CCOC(=O)C1=C(COCCN)NC(C)=C(C(=O)OC)C1c1ccccc1Cl (stereo unspecified) [AMLODIPINE]
- AC50 (Acetylcholinesterase): > 30 µM

Compound: CN/C(=N/CCSCc1nc[nH]c1C)NC#N [CIMETIDINE]
- AC50 (Acetylcholinesterase): > 30 µM

Compound: CC(C)n1c(/C=C/C(O)CC(O)CC(=O)O)c(-c2ccc(F)cc2)c2ccccc21 (stereo unspecified) [FLUVASTATIN]
- AC50 (Acetylcholinesterase): > 30 µM

Compound: O=c1[nH]c2ccccc2n1C1CCN(CCCC(c2ccc(F)cc2)c2ccc(F)cc2)CC1 [PIMOZIDE]
- AC50 (D(4) dopamine receptor): 72.8 nM

Compound: CN1CCN(CC(=O)N2c3ccccc3C(=O)Nc3cccnc32)CC1 [PIRENZEPINE]
- AC50 [10]: > 30 µM
- AC50 (Acetylcholinesterase): > 30 µM
